Measurements published in US7951997B2, “Reversible male sterility in transgenic plants by expression of cytokinin oxidase” (Monsanto Technology LLC, priority 2001, dated 2011).

Test system: male-sterile F1 transgenic plants (CKX1)
Test: Fertility restoration: tassel fertility rating after TDZ and kinetin applications
Format: in vivo, corn
Set-up: key: 0: No or very little floral development; x: Advanced floral development observed in some areas of tassels; xx: Increased areas of advanced floral development and anthersis observed in some flowers
Details: 0.25% Sylgard 309
Experimental: Two commercially registered chemicals were tested in fertility restoration experiments. Kinetin is a synthetic cytokinin that is not oxidized by CKX1 and TDZ is a known cytokinin oxidase inhibitor. The F1 seeds from the crosses between wild-type plants and several male-sterile R0 events were planted. NPTII ELISA positive plants were identified as the male-sterile transgenic plants among F1 segregating populations by enzyme-linked immunosorbent assays (ELISA, Example 3) performed on leaf samples collected at the seedling stage of all plants. Identified plants were treated at the V4, V7 and V10 stages. The application rates for each plant were 0, 10, 20, 30, and 100 mg of kinetin with or without 3 mg of TDZ in the presence of 0.25% of Sylgard 309 surfactant (Willbur-Ellis, Fresno, Calif.). One to three plants were tested at a particular rate combination.
The NPTII ELISA tests were thus used to select male sterile F1 transgenic plants for chemical treatments. […] These chemical application conditions were not sufficient to produce fully fertile plants. The degree of floral development restoration varied and was limited to older tissues of the tassel. […] Table 3 details tassel fertility rating of the restoration study.
Two to three transgenic F1 plants were used in each treatment group. Plants were either treated repeatedly in three different rates at three V4, V7 and V10 developmental stages or once in a higher rate at V7 developmental stage. Rates are indicated by mg/plant of TDZ and kinetin, respectively, in the presence of 0.25% of Sylgard 309 surfactant. The fertility rating was based on the visual observation. 0, No or very little floral development; x, Advanced floral development observed in some areas of tassels; xx, Increased areas of advanced floral development and anthersis observed in some flowers.

Measured: tassel fertility rating

c1coc(CNc2ncnc3[nH]cnc23)c1 [kinetin]
0: line 16400, TDZ 0, kinetin 20 mg/plant, applications at V4 + V7 + V10 | line 16400, TDZ 0, kinetin 100 mg/plant, application at V7 | line 16409, TDZ 0, kinetin 20 mg/plant, applications at V4 + V7 + V10 | line 16409, TDZ 0, kinetin 100 mg/plant, application at V7 | line 16802, TDZ 0, kinetin 20 mg/plant, applications at V4 + V7 + V10 | line 16802, TDZ 0, kinetin 100 mg/plant, application at V7 | line 16825, TDZ 0, kinetin 20 mg/plant, applications at V4 + V7 + V10 | line 16825, TDZ 0, kinetin 100 mg/plant, application at V7 | line 16832, TDZ 0, kinetin 20 mg/plant, applications at V4 + V7 + V10 | line 16832, TDZ 0, kinetin 100 mg/plant, application at V7
